Data reported in patent US8097709B2, “Macrolactam compounds” (Novobiotic Pharmaceuticals, Inc., priority 2007, dated 2012).
Values after ≈ are worked out from the molar mass of the structure shown.

Tests used:
[1] = system: B. subtilis 1A1; assay: Growth inhibition on solid agar (5 μl spot on bacterial lawn); type: cell-based; settings: minimal concentration giving observable zone of no growth, MHB agar
[2] = system: B. anthracis Sterne; type: cell-based; settings: minimal concentration giving observable zone of no growth, MHB agar
[3] = system: MRSA NRS1; assay: Growth inhibition on solid agar (5 μl spot on bacterial lawn); type: cell-based, Staphylococcus aureus; settings: minimal concentration giving observable zone of no growth, MHB agar
[4] = system: MRSA NRS108; assay: as above; type: cell-based, Staphylococcus aureus; settings: minimal concentration giving observable zone of no growth, MHB agar
[5] = system: E. faecalis ATCC 51575 (VRE); assay: as above; type: cell-based; settings: minimal concentration giving observable zone of no growth, MHB agar
[6] = system: E. faecalis ATCC 51299 (VRE); assay: as above; type: cell-based; settings: minimal concentration giving observable zone of no growth, MHB agar
[7] = system: E. faecalis BM4147 (VRE); assay: as above; type: cell-based; settings: minimal concentration giving observable zone of no growth, MHB agar
[8] = system: NIH3T3 mouse embryonic fibroblasts; assay: Mammalian cytotoxicity assay (CellTiter 96 AQueous One Solution); type: cell-based; settings: NIH3T3 cells, 24 hr exposure; concentration with 50% of control signal
Experimental: Mammalian cytotoxicity assays were performed using NIH3T3 mouse embryonic fibroblasts (ATCC CRL-1658), and cytotoxicity was measured using the CellTiter 96® AQueous One Solution Cell Proliferation Assay (Promega, Madison, Wis., Cat: G3582), according to the manufacturer's recommendations.
A control of DMSO was also included (wells in column A01, and A12).
An exponentially growing population of NIH/3T3 mouse embryonic fibroblast cells was trypsinized into single cell suspension and seeded at 3000 cells per 100 μl in all wells, except column 11 and 12 of a sterile 96-well flat bottom plate. […]
The plate was visually inspected under a dissecting microscope, and the absorbance at 490 nm was read using a Spectramax Plus Spectrophotometer, with wells A12, and B12 reserved as blanks (FIG. 3). The signal of compound alone (well All) was verified not to contribute to the absorbance at this wavelength. Next, 20 μl of the CellTiter 96® AQueous One Solution Cell Proliferation Assay (Promega, Madison, Wis., Cat: G3582) was added to each well, and the plate was read after 3 hr of incubation. […]

[9] = system: human red blood cells; type: cell-based
Experimental: The effect of NOVO3 on the hemolysis of human red blood cells was also tested. A total of 10 ml of expired packed red blood cells from the blood bank was gently added to 80 ml of PBS (Phosphate buffered saline), and pelleted at 1000 g for 5 minutes at 4° C. The upper phase and buffy layer (white blood cells) were removed. The cells are repeatedly washed by gentle mixing with PBS, and centrifugation until the upper phase is clear. In the last wash, 40 ml of 1×PBS with 0.05% BSA was added to half of the red blood cells while 40 ml of 1×PBS without BSA was added to the other half. The upper phase of the last wash was removed to leave a total volume of about 10 ml. The concentration of the red blood cells was measured by using the spectrophometer at 600 nm. […]
The compound NOVO3 is two-fold serially diluted (similar to that described above for mammalian NIH3T3 cytotoxicity assay) as 100× concentration in DMSO, ranging from 12.5 μg/ml to 3200 μg/ml. […] After thorough mixing, the absorbance at 450 nm was read using a Spectramax Plus Spectrophotometer, with wells A12, and B12 reserved […], using wells with only 1×PBS as blanks.
The absorbance at 450 nm measured the amount of hemoglobin released by the lysis of red blood cells (FIG. 4). […]

[10] = system: MSSA 29213; assay: Minimal Inhibitory Concentration in broth; type: cell-based; settings: Staphylococcus aureus
[11] = system: MSSA 33591; assay: Minimal Inhibitory Concentration in broth; type: cell-based; settings: Staphylococcus aureus
[12] = system: C. difficile 2001; assay: Minimal Inhibitory Concentration in broth; type: cell-based; settings: Clostridioides difficile, 2001, C. difficile 2001
[13] = system: C. difficile 196; assay: Minimal Inhibitory Concentration in broth; type: cell-based; settings: Clostridioides difficile, MHB + 0.05% BSA
[14] = system: B. subtilis 1A1; assay: Minimal Inhibitory Concentration in broth; settings: Bacillus subtilis, 1A1, B. subtilis 1A1
[15] = system: MRSA NRS108; assay: Minimal Inhibitory Concentration in broth; settings: Staphylococcus aureus

## CC1/C=C/C=C\C=C\CC(C)C(OC2OC(C)C(O)C(N)C2O)C\C=C/C=C/C=C\C(=O)NC1 (stereo not shown) [NOVO3]
[1]
  Growth Inhibition with 5 μl of NOVO3: 0.125 µg/mL
[2]
  Growth Inhibition with 5 μl of NOVO3: 1.25 µg/mL
[3]
  Growth Inhibition with 5 μl of NOVO3: 1.25 µg/mL
[4]
  Growth Inhibition with 5 μl of NOVO3: 1.25 µg/mL
[5]
  Growth Inhibition with 5 μl of NOVO3: 5 µg/mL
[6]
  Growth Inhibition with 5 μl of NOVO3: 1.25 µg/mL
[7]
  Growth Inhibition with 5 μl of NOVO3: 1.25 µg/mL
[8]
  LD50: > 32 µg/mL
[9]
  hemolysis: no significant hemolysis
[10]; MHB
  MIC: 8 µg/mL (≈ 16.9 µM)
[10]; MHB + 0.05% BSA
  MIC: 0.25 µg/mL
[11]; MHB
  MIC: 8 µg/mL (≈ 16.9 µM)
[11]; MHB + 0.05% BSA
  MIC: 0.25 µg/mL
[12]; MHB
  MIC: 32 µg/mL (≈ 67.7 µM)
[12]; MHB + 0.05% BSA
  MIC: 8 µg/mL
[13]
  MIC: 8 µg/mL
[14]; MHB (Table 3)
  MIC: 3 ± 1.3 µg/mL (≈ 6.35 µM)
[14]; MHB (Table 4, serum study)
  MIC: 3 ± 1.3 µg/mL (≈ 6.35 µM)
[14]; MHB + 0.02% Tween 80
  MIC: 0.25 µg/mL
[14]; MHB + 0.05% BSA
  MIC: 0.166 ± 0.08 µg/mL
[14]; MHB + 10% Calf Bovine Serum
  MIC: 0.144 µg/mL
[14]; MHB + 10% human serum
  MIC: 0.125 µg/mL
[14]; MHB + 10% mouse serum
  MIC: 0.125 µg/mL
[14]; MHB + 40% Calf Bovine Serum
  MIC: 0.125 µg/mL
[15]; MRSA NRS108, MHB (Table 3)
  MIC: 8 µg/mL (≈ 16.9 µM)
[15]; MRSA NRS108, MHB (Table 4B, serum study)
  MIC: 4 to 8 µg/mL (≈ 8.46 to 16.9 µM)
[15]; MRSA NRS108, MHB + 0.05% BSA
  MIC: 0.25 to 0.5 µg/mL
[15]; MRSA NRS108, MHB + 10% Calf Bovine Serum
  MIC: 0.25 to 0.5 µg/mL
[15]; MRSA NRS108, MHB + 40% Calf Bovine Serum
  MIC: 0.25 µg/mL
[15]; MRSA|NRS108, MRSA NRS108, GM (Dulbecco's Modified Eagle's medium with 10% bovine calf serum)
  MIC: 0.25 µg/mL (≈ 0.529 µM)

## Triton X100 [reference compound]
[9]
  absorbance at 450 nm (hemoglobin released): 0.41
